The values that follow come from the supplement of paper PMC10307832.

Assay in all cases: relative viability (nuclei count vs DMSO), 5 days (fraction); higher = more cells survive
Compound in the assay “Kobe2602 + Pemetrexed”: C1=CC(=CC=C1NC(=S)NNC2=C(C=C(C=C2[N+](=O)[O-])C(F)(F)F)[N+](=O)[O-])F [Kobe2602] + Nc1nc2[nH]cc(CCc3ccc(C(=O)N[C@@H](CCC(=O)O)C(=O)O)cc3)c2c(=O)[nH]1 [Pemetrexed] (partner 0.2 µM)
The procedure, abridged:
(§1)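 A single step with final 0.05% Triton X-100, 1% formaldehyde and 1 ug/ml Hoechst fixed the cells and stained nuclei 5 days after treatment. Lung cancer cell lines in 1536-well plates had been treated by pin tool the day after seeding with one drug alone or a fixed anchor-drug dose plus five library-drug doses (not always all listed) in √10 steps, and nuclei were counted on 4× images. Relative viability is the ratio of nuclei in treated wells to nuclei in vehicle wells, taken as the median of duplicate plates.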

Compound in the assay “Zosuquidar + Trametinib”: O[C@@H](COc1cccc2ncccc12)CN1CCN([C@@H]2c3ccccc3[C@@H]3[C@H](c4ccccc42)C3(F)F)CC1 [Zosuquidar] + CC(=O)Nc1cccc(-n2c(=O)n(C3CC3)c(=O)c3c(Nc4ccc(I)cc4F)n(C)c(=O)c(C)c32)c1 [Trametinib] (partner 0.02 µM)
The procedure, abridged:
as §1

Compound in the assay “Kobe2602 + AZD7762”: C1=CC(=CC=C1NC(=S)NNC2=C(C=C(C=C2[N+](=O)[O-])C(F)(F)F)[N+](=O)[O-])F [Kobe2602] + NC(=O)Nc1cc(-c2cccc(F)c2)sc1C(=O)N[C@H]1CCCNC1 [AZD7762] (partner 0.2 µM)
The procedure, abridged:
as §1

Compound in the assay “Kobe2602 + Decitabine”: C1=CC(=CC=C1NC(=S)NNC2=C(C=C(C=C2[N+](=O)[O-])C(F)(F)F)[N+](=O)[O-])F [Kobe2602] + Nc1ncn([C@H]2C[C@H](O)[C@@H](CO)O2)c(=O)n1 [Decitabine] (partner 2 µM)
The essentials:
as §1

Regarding NCI-H3122, the relative viability in the assay with Kobe2602 + Pemetrexed (first compound 0.2 µM) stood at 0.189; with Kobe2602 + Pemetrexed (first compound 0.6325 µM), 0.191; in the assay with Kobe2602 + Pemetrexed (first compound 2 µM), 0.198; with Kobe2602 + Pemetrexed (first compound 6.325 µM), 0.187; with Kobe2602 + Pemetrexed (first compound 20 µM), 0.208; in the assay with Zosuquidar + Trametinib (first compound 0.01 µM) it was 0.232. Further, the relative viability with Zosuquidar + Trametinib (first compound 0.03162 µM) stood at 0.258; in the assay with Zosuquidar + Trametinib (first compound 0.1 µM), 0.238; with Zosuquidar + Trametinib (first compound 0.3162 µM), 0.222; in the assay with Zosuquidar + Trametinib (first compound 1 µM) it was 0.211; in the assay with Kobe2602 + AZD7762 (first compound 0.2 µM), 0.984; with Kobe2602 + AZD7762 (first compound 0.6325 µM) it was 0.963. In addition, the relative viability in the assay with Kobe2602 + AZD7762 (first compound 2 µM) came to 0.935; with Kobe2602 + AZD7762 (first compound 6.325 µM) it was 1.09; with Kobe2602 + AZD7762 (first compound 20 µM), 1.04; with Kobe2602 + Decitabine (first compound 0.2 µM), 0.46; with Kobe2602 + Decitabine (first compound 0.6325 µM), 0.496; in the assay with Kobe2602 + Decitabine (first compound 2 µM), 0.471. Further, the relative viability in the assay with Kobe2602 + Decitabine (first compound 6.325 µM) was 0.402; in the assay with Kobe2602 + Decitabine (first compound 20 µM) it was 0.391.

In the case of PC-3 [JPC-3], the relative viability with Kobe2602 + Pemetrexed (first compound 0.2 µM) was 1.26; with Kobe2602 + Pemetrexed (first compound 0.6325 µM), 1.33; in the assay with Kobe2602 + Pemetrexed (first compound 2 µM), 1.11; with Kobe2602 + Pemetrexed (first compound 6.325 µM), 1.11; with Kobe2602 + Pemetrexed (first compound 20 µM), 1.06; with Zosuquidar + Trametinib (first compound 0.01 µM) it was 0.78. In addition, the relative viability with Zosuquidar + Trametinib (first compound 0.03162 µM) amounted to 0.628; with Zosuquidar + Trametinib (first compound 0.1 µM), 0.667; with Zosuquidar + Trametinib (first compound 0.3162 µM), 0.692; with Zosuquidar + Trametinib (first compound 1 µM) it was 0.699; with Kobe2602 + AZD7762 (first compound 0.2 µM), 0.872; with Kobe2602 + AZD7762 (first compound 0.6325 µM) it was 0.913. Moreover, the relative viability with Kobe2602 + AZD7762 (first compound 2 µM) stood at 0.603; with Kobe2602 + AZD7762 (first compound 6.325 µM), 0.823; with Kobe2602 + AZD7762 (first compound 20 µM), 0.835; with Kobe2602 + Decitabine (first compound 0.2 µM), 0.856; in the assay with Kobe2602 + Decitabine (first compound 0.6325 µM) it was 0.895; with Kobe2602 + Decitabine (first compound 2 µM), 0.84. The relative viability with Kobe2602 + Decitabine (first compound 6.325 µM) worked out at 0.754; with Kobe2602 + Decitabine (first compound 20 µM), 0.787.

As to PC-14, the relative viability in the assay with Kobe2602 + Pemetrexed (first compound 0.2 µM) stood at 0.15; with Kobe2602 + Pemetrexed (first compound 0.6325 µM), 0.137; with Kobe2602 + Pemetrexed (first compound 2 µM), 0.134; in the assay with Kobe2602 + Pemetrexed (first compound 6.325 µM), 0.15; with Kobe2602 + Pemetrexed (first compound 20 µM), 0.14; with Zosuquidar + Trametinib (first compound 0.01 µM), 0.826. In addition, the relative viability stood at 0.753 in the assay with Zosuquidar + Trametinib (first compound 0.03162 µM); 0.862 with Zosuquidar + Trametinib (first compound 0.1 µM); 0.83 with Zosuquidar + Trametinib (first compound 0.3162 µM); 0.706 with Zosuquidar + Trametinib (first compound 1 µM); 0.39 with Kobe2602 + AZD7762 (first compound 0.2 µM); 0.445 with Kobe2602 + AZD7762 (first compound 0.6325 µM). The relative viability in the assay with Kobe2602 + AZD7762 (first compound 2 µM) amounted to 0.348; with Kobe2602 + AZD7762 (first compound 6.325 µM) it was 0.351; in the assay with Kobe2602 + AZD7762 (first compound 20 µM), 0.308; with Kobe2602 + Decitabine (first compound 0.2 µM), 0.224; with Kobe2602 + Decitabine (first compound 0.6325 µM) it was 0.201; with Kobe2602 + Decitabine (first compound 2 µM) it was 0.235. Moreover, the relative viability with Kobe2602 + Decitabine (first compound 6.325 µM) came to 0.234; in the assay with Kobe2602 + Decitabine (first compound 20 µM) it was 0.247.

Turning to RERF-LC-KJ, the relative viability with Kobe2602 + Pemetrexed (first compound 0.2 µM) came out at 0.468; with Kobe2602 + Pemetrexed (first compound 0.6325 µM), 0.469; with Kobe2602 + Pemetrexed (first compound 2 µM), 0.498; with Kobe2602 + Pemetrexed (first compound 6.325 µM) it was 0.496; with Kobe2602 + Pemetrexed (first compound 20 µM) it was 0.449; in the assay with Zosuquidar + Trametinib (first compound 0.01 µM), 0.837. Besides, the relative viability with Zosuquidar + Trametinib (first compound 0.03162 µM) stood at 0.897; with Zosuquidar + Trametinib (first compound 0.1 µM) it was 0.944; in the assay with Zosuquidar + Trametinib (first compound 0.3162 µM) it was 0.857; with Zosuquidar + Trametinib (first compound 1 µM), 0.919; in the assay with Kobe2602 + AZD7762 (first compound 0.2 µM), 0.883; with Kobe2602 + AZD7762 (first compound 0.6325 µM), 0.973. The relative viability was found to be 1.02 with Kobe2602 + AZD7762 (first compound 2 µM); 0.881 with Kobe2602 + AZD7762 (first compound 6.325 µM); 0.894 with Kobe2602 + AZD7762 (first compound 20 µM); 0.648 in the assay with Kobe2602 + Decitabine (first compound 0.2 µM); 0.69 with Kobe2602 + Decitabine (first compound 0.6325 µM); 0.576 with Kobe2602 + Decitabine (first compound 2 µM). In addition, the figures for the relative viability with Kobe2602 + Decitabine (first compound 6.325 µM) and with Kobe2602 + Decitabine (first compound 20 µM) were 0.591 and 0.37, respectively.

Regarding SW 900, the relative viability in the assay with Kobe2602 + Pemetrexed (first compound 0.2 µM) worked out at 0.472; in the assay with Kobe2602 + Pemetrexed (first compound 0.6325 µM) it was 0.489; with Kobe2602 + Pemetrexed (first compound 2 µM) it was 0.479; in the assay with Kobe2602 + Pemetrexed (first compound 6.325 µM) it was 0.487; in the assay with Kobe2602 + Pemetrexed (first compound 20 µM), 0.493; with Zosuquidar + Trametinib (first compound 0.01 µM), 0.666. Also, the relative viability turned out to be 0.715 with Zosuquidar + Trametinib (first compound 0.03162 µM); 1.05 in the assay with Zosuquidar + Trametinib (first compound 0.3162 µM); 0.988 in the assay with Zosuquidar + Trametinib (first compound 1 µM); 0.7 in the assay with Kobe2602 + AZD7762 (first compound 0.2 µM); 0.551 in the assay with Kobe2602 + AZD7762 (first compound 0.6325 µM); 0.496 in the assay with Kobe2602 + AZD7762 (first compound 2 µM). Further, the relative viability with Kobe2602 + AZD7762 (first compound 6.325 µM) came out at 0.657; with Kobe2602 + AZD7762 (first compound 20 µM), 0.595; with Kobe2602 + Decitabine (first compound 0.2 µM), 0.559; in the assay with Kobe2602 + Decitabine (first compound 0.6325 µM), 0.454; with Kobe2602 + Decitabine (first compound 2 µM) it was 0.411; with Kobe2602 + Decitabine (first compound 6.325 µM), 0.452. Besides, the relative viability in the assay with Kobe2602 + Decitabine (first compound 20 µM) was determined as 0.387.
